According to the NIST ThermoML archive (doi:10.1021/je800732f):
± gives the expanded uncertainty stated by the source.

Assay: cn = amount concentration of the nth substance listed, in mol/dm3
Settings: 101 kPa, Liquid; for viscosity: Concentric cylinders viscometry, c1 = 0.025; for mass density: Vibrating tube method

Row | viscosity (293.15 K) [mPa·s] | viscosity (298.15 K) [mPa·s] | viscosity (303.15 K) [mPa·s] | mass density (298.15 K, c1 = 0.2091) [kg/m3] | mass density (298.15 K, c1 = 0.5066) [kg/m3] | mass density (298.15 K, c1 = 1.013) [kg/m3] | mass density (298.15 K, c1 = 1.503) [kg/m3] | mass density (298.15 K, c1 = 1.974) [kg/m3] | mass density (298.15 K, c1 = 2.45) [kg/m3] | SMILES
1 | 1.019 ± 0.0071 | 0.9026 ± 0.0067 | 0.8068 ± 0.0064 |  |  |  |  |  |  | NCC(=O)NCC(=O)O [glycylglycine] + O
2 |  |  |  | 1005.46 ± 0.056 | 1015.26 ± 0.065 | 1034.19 ± 0.085 | 1049.73 ± 0.11 | 1074.45 ± 0.15 | 1088.01 ± 0.19 | [Cl-].[Na+] [sodium chloride] + O
